The results in this text go back to patent publication US20240287124A1, “PRODRUGS OF 4'-SUBSTITUTED NUCLEOSIDE REVERSE TRANSCRIPTASE INHIBITORS” (Merck Sharp & Dohme LLC, priority 2023, published 2024).

Data set [1] can be described thus: Plasma stability in frozen human plasma. The following applies: frozen human plasma at 37° C., 0-3 hr; read-out: T1/2 Human Plasma (converted). The format is in vitro ADME. As for the experimental part:
Plasma stability of the compounds was evaluated in frozen human plasma at 37° C. in a 10% CO2 environment. The stability of the analyte was assessed by determining the percentage of drug loss over the course of 0, 0.25, 0.5, 1, and 3 hr. In addition, the appearance of Compound A was determined for the same time course. Percent of drug loss as based on ratio with internal standard. Analyte concentrations were measured by LC/MS/MS. Linear regression was performed with log transformed percent of average TO values and linear time values. The elimination rate constant (ke) was calculated from the slope of this regression line and the half-life (T½) calculated based on the elimination rate constant.

Data set [2] is described as follows: Aqueous solubility in PBS, pH 7.4. It is filed as physicochemical. As to conditions: pH 7.4, aqueous buffer, thermodynamic from solid, pH 7.4 phosphate buffered saline, 24 hours, amorphous or crystalline material, read-out: Aqu. Solubility. The procedure, abridged: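 Excess solid suspended at 0.5 mg/mL in PBS pH 7.4 and stirred 24 hours. Filtrate (0.45 μm) diluted 1:1 with ACN:H2O and quantified by UPLC against a standard curve; residual solid phase checked by XRPD and PLM.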

Data set [3] deals with HIV-1 wild-type (R8) virus. In words: Viral KINetics in Green cells (VIKING) assay, HIV-1 replication in MT4-GFP reporter cells. It is filed as cell-based. The following applies: Human immunodeficiency virus 1, 10% normal human serum, MT4-GFP cells, HIV-1 wild-type (R8); read-out: Viking (10% NHS), IC50. The procedure, abridged:
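MT4-GFP cells infected overnight with HIV-1 R8 at MOI ~0.01, then added to compound plates in RPMI with 10% normal human serum; 10-point 3-fold dilutions (typically 4 μM-0.2 nM). Green cells counted at ~48 h and 72 h; reproductive ratio (72 h/48 h) gave % inhibition, IC50 by 4-parameter fit.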

pIC50: −log10 of the molar value. In brackets after ≈: the same amount, converted by molar mass. Like-named read-outs stand apart in the source and are kept apart here.

What is called solubility is the dissolved amount per volume that the medium holds. For orientation: pIC50 means the IC50 on a negative log10 scale, so that one unit is a factor of ten.

Consider `C#C[C@]1(COC(=O)OC(C)C)O[C@@H](n2ccc3c(N)nc(Cl)nc32)C[C@@H]1O` [Example 23, ((2R,3S,5R)-5-(4-amino-2-chloro-7H-pyrrolo[2,3-d]pyrimidin-7-yl)-2-ethynyl-3-hydroxytetrahydrofuran-2-yl)methyl isopropyl carbonate], for which the half-life in data set [1] was 1.68 min. In addition, the solubility at 24 h in data set [2] (phosphate buffered saline) was 351 µg/mL (≈ 889 µM). In addition, the pIC50 in data set [3] was 8.66.
The like results for `C#C[C@]1(COC(=O)CCCC)O[C@@H](n2ccc3c(N)nc(Cl)nc32)C[C@@H]1OC(=O)CCCC` [Example 7, (2R,3S,5R)-5-(4-amino-2-chloro-7H-pyrrolo[2,3-d]pyrimidin-7-yl)-2-ethynyl-2-((pentanoyloxy)methyl)tetrahydrofuran-3-yl pentanoate] were, in that order, 2.16 min, less than 1 µg/mL and 8.54.
The like results for `C#C[C@]1(COC(=O)c2ccccc2)O[C@@H](n2ccc3c(N)nc(Cl)nc32)C[C@@H]1O` [Example 9, ((2R,3S,5R)-5-(4-amino-2-chloro-7H-pyrrolo[2,3-d]pyrimidin-7-yl)-2-ethynyl-3-hydroxytetrahydrofuran-2-yl)methyl benzoate] were, in that order, 1.56 min, 182 µg/mL (≈ 441 µM) and 8.55.
In the case of `C#C[C@]1(CO[P@@](=O)(N[C@@H](C)C(=O)OC(C)C)Oc2ccccc2)O[C@@H](n2ccc3c(N)nc(Cl)nc32)C[C@@H]1O` [Example 8, Isopropyl ((S)-(((2R,3S,5R)-5-(4-amino-2-chloro-7H-pyrrolo[2,3-d]pyrimidin-7-yl)-2-ethynyl-3-hydroxytetrahydrofuran-2-yl)methoxy)(phenoxy)phosphoryl)-L-alaninate], the half-life in data set [1] is 798 min. Moreover, the solubility at 24 h in data set [2] turned out to be 304 µg/mL (≈ 526 µM). Besides, the pIC50 in data set [3] was 7.38.
Consider `C#C[C@]1(CO)O[C@@H](n2ccc3c(N)nc(Cl)nc32)C[C@@H]1OC(=O)OC(C)C` [Example 1, (2R,3S,5R)-5-(4-amino-2-chloro-7H-pyrrolo[2,3-d]pyrimidin-7-yl)-2-ethynyl-2-(hydroxymethyl)tetrahydrofuran-3-yl isopropyl carbonate], for which the half-life in data set [1] was 1150 min. The solubility at 24 h in data set [2] (phosphate buffered saline) was determined as 42 µg/mL (≈ 106 µM). In addition, the pIC50 in data set [3] was 7.13.
The like results for `C#C[C@]1(COC(=O)CCCC)O[C@@H](n2ccc3c(N)nc(Cl)nc32)C[C@@H]1O` [Example 15, ((2R,3S,5R)-5-(4-amino-2-chloro-7H-pyrrolo[2,3-d]pyrimidin-7-yl)-2-ethynyl-3-hydroxytetrahydrofuran-2-yl)methyl pentanoate] were, in that order, less than 15 min, 55 µg/mL (≈ 140 µM) and 8.64.
Taken in the same sequence, the figures for `C#C[C@]1(COC(=O)OCCCCC)O[C@@H](n2ccc3c(N)nc(Cl)nc32)C[C@@H]1O` [Example 14, ((2R,3S,5R)-5-(4-amino-2-chloro-7H-pyrrolo[2,3-d]pyrimidin-7-yl)-2-ethynyl-3-hydroxytetrahydrofuran-2-yl)methyl pentyl carbonate] were less than 15 min, 113 µg/mL (≈ 267 µM) and 8.60.
